Reference: patent publication US20240376084A1, “INHIBITORS OF ALPHA-HEMOLYSIN OF STAPHYLOCOCCUS AUREUS” (Helmholtz-Zentrum Fur Infektionsforschung GmbH, priority 2021, published 2024)

Target: hemolysin alpha from Staphylococcus aureus (Staphylococcus aureus, UniProt P09616)
Test: cell-based

hemolysin alpha from Staphylococcus aureus, sequence (P09616 27-319 limits assumed): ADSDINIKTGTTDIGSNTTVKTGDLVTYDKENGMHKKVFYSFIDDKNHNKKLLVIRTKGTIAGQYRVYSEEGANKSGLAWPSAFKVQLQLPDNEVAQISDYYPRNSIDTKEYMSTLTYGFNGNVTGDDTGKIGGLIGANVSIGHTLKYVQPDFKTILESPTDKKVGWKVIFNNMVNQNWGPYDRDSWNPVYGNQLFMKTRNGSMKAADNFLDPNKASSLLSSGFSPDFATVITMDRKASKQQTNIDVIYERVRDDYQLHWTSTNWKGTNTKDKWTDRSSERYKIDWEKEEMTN

`Cc1cc2[nH]c(=O)c(=O)[nH]c2cc1S(=O)(=O)Nc1cc(C)c(-c2cnn(C)c2)c(C)c1` [Compound 184, N-(3,5-dimethyl-4-(1-methyl-1H-pyrazol-4-yl)phenyl)-7-methyl-2,3-dioxo-1,2,3,4-tetrahydroquinoxaline-6-sulfonamide] and `Cc1cc2[nH]c(=O)c(=O)[nH]c2cc1S(=O)(=O)Nc1cc(C)c(-c2ccnn2C)c(C)c1` [Compound 188, N-(3,5-dimethyl-4-(1-methyl-1H-pyrazol-5-yl)phenyl)-7-methyl-2,3-dioxo-1,2,3,4-tetrahydroquinoxaline-6-sulfonamide] fall in the same range of IC50: 1000 to 3500 nM for the first, 1000 to 3500 nM for the second.

`Cc1cc(NS(=O)(=O)c2cc3[nH]c(=O)c(=O)[nH]c3cc2Cl)cc(C)c1-c1ccoc1` [Compound 156, 7-chloro-N-(4-(furan-3-yl)-3,5-dimethylphenyl)-2,3-dioxo-1,2,3,4-tetrahydroquinoxaline-6-sulfonamide] and `Cc1cc(NS(=O)(=O)c2cc3[nH]c(=O)c(=O)[nH]c3cc2Cl)cc(C)c1Br` [Compound 145, N-(4-bromo-3,5-dimethylphenyl)-7-chloro-2,3-dioxo-1,2,3,4-tetrahydroquinoxaline-6-sulfonamide] fall in the same range of IC50: 100 to 1000 nM for the first, 100 to 1000 nM for the second.

First: CC(C)c1cc2[nH]c(=O)c(=O)[nH]c2cc1S(=O)(=O)Nc1ccc(-c2ccncc2)c(Cl)c1 [Compound 159, N-(3-chloro-4-(pyridin-4-yl)phenyl)-7-isopropyl-2,3-dioxo-1,2,3,4-tetrahydroquinoxaline-6-sulfonamide]
Second: Cc1cc(NS(=O)(=O)c2cc3[nH]c(=O)c(=O)[nH]c3cc2Cl)ccc1-c1ccncc1 [Compound 155, 7-chloro-N-(3-methyl-4-(pyridin-4-yl)phenyl)-2,3-dioxo-1,2,3,4-tetrahydroquinoxaline-6-sulfonamide]
The IC50 of the first is higher: 1000 to 3500 nM for the first, 100 to 1000 nM for the second. The second is the more potent here.

First: Cc1cc2[nH]c(=O)c(=O)[nH]c2cc1S(=O)(=O)Nc1ccc(-c2cncc(Cl)c2)c(Cl)c1 [Compound 189, N-(3-chloro-4-(5-chloropyridin-3-yl)phenyl)-7-methyl-2,3-dioxo-1,2,3,4-tetrahydroquinoxaline-6-sulfonamide]
Second: Cc1ccc(-c2ccc(NS(=O)(=O)c3cc4[nH]c(=O)c(=O)[nH]c4cc3C)cc2)c(C)c1 [Compound 118, N-(2′,4′-dimethyl-[1,1′-biphenyl]-4-yl)-7-methyl-2,3-dioxo-1,2,3,4-tetrahydroquinoxaline-6-sulfonamide]
The IC50 of the first is lower: 30 to 100 nM for the first, 100 to 1000 nM for the second.

First: O=c1[nH]c2cc(F)c(S(=O)(=O)Nc3ccc(C(F)(F)F)cc3)cc2[nH]c1=O [Compound 160, 7-fluoro-2,3-dioxo-N-(4-(trifluoromethyl)phenyl)-1,2,3,4-tetrahydroquinoxaline-6-sulfonamide]
Second: Cc1cc(NS(=O)(=O)c2cc3[nH]c(=O)c(=O)[nH]c3cc2F)ccc1Br [Compound 163, N-(4-bromo-3-methylphenyl)-7-fluoro-2,3-dioxo-1,2,3,4-tetrahydroquinoxaline-6-sulfonamide]
The IC50 of the first is higher: 1000 to 3500 nM for the first, 100 to 1000 nM for the second. The second is the more potent here.

`Cc1ccc(-c2ccc(NS(=O)(=O)c3cc4[nH]c(=O)c(=O)[nH]c4cc3C)cc2)cc1` [Compound 115, 7-methyl-N-(4′-methyl-[1,1′-biphenyl]-4-yl)-2,3-dioxo-1,2,3,4-tetrahydroquinoxaline-6-sulfonamide] and `Cc1cc2[nH]c(=O)c(=O)[nH]c2cc1S(=O)(=O)Nc1ccc(N(C)C)cc1` [Compound 133, N-(4-(dimethylamino)phenyl)-7-methyl-2,3-dioxo-1,2,3,4-tetrahydroquinoxaline-6-sulfonamide] fall in the same range of IC50: 100 to 1000 nM for the first, 100 to 1000 nM for the second.

Compared with `O=c1[nH]c2cc(Br)c(S(=O)(=O)Nc3ccc(C4CC4)cc3)cc2[nH]c1=O` [Compound 96, 7-bromo-N-(4-cyclopropylphenyl)-2,3-dioxo-1,2,3,4-tetrahydroquinoxaline-6-sulfonamide], `Cc1cc2[nH]c(=O)c(=O)[nH]c2cc1S(=O)(=O)Nc1ccc(C#N)cc1` [Compound 129, N-(4-cyanophenyl)-7-methyl-2,3-dioxo-1,2,3,4-tetrahydroquinoxaline-6-sulfonamide] is higher in IC50: 100 to 1000 nM for the first, 1000 to 3500 nM for the second. The first is the more potent here.

`Cc1cc2[nH]c(=O)c(=O)[nH]c2cc1S(=O)(=O)Nc1ccc2ncccc2c1` [Compound 186, 7-methyl-2,3-dioxo-N-(quinolin-6-yl)-1,2,3,4-tetrahydroquinoxaline-6-sulfonamide] and `Cc1cc2[nH]c(=O)c(=O)[nH]c2cc1S(=O)(=O)Nc1ccc(N2CCOCC2)cc1` [Compound 180, 7-methyl-N-(4-morpholinophenyl)-2,3-dioxo-1,2,3,4-tetrahydroquinoxaline-6-sulfonamide] fall in the same range of IC50: 1000 to 3500 nM for the first, 1000 to 3500 nM for the second.

First: Cc1cc2[nH]c(=O)c(=O)[nH]c2cc1S(=O)(=O)Nc1cc(C)c(-c2cn[nH]c2)c(C)c1 [Compound 187, N-(3,5-dimethyl-4-(1H-pyrazol-4-yl)phenyl)-7-methyl-2,3-dioxo-1,2,3,4-tetrahydroquinoxaline-6-sulfonamide]
Second: CCCc1ccc(NS(=O)(=O)c2cc3[nH]c(=O)c(=O)[nH]c3cc2C(C)C)cc1 [Compound 151, 7-isopropyl-2,3-dioxo-N-(4-propylphenyl)-1,2,3,4-tetrahydroquinoxaline-6-sulfonamide]
The IC50 of the first is higher: 1000 to 3500 nM for the first, 100 to 1000 nM for the second.

Compared with `Cc1cc2[nH]c(=O)c(=O)[nH]c2cc1S(=O)(=O)Nc1ccc2c(ccn2C)c1` [Compound 228, 7-methyl-N-(1-methyl-1H-indol-5-yl)-2,3-dioxo-1,2,3,4-tetrahydroquinoxaline-6-sulfonamide], `Cc1cc2[nH]c(=O)c(=O)[nH]c2cc1S(=O)(=O)Nc1ccc2cccnc2c1` [Compound 231, 7-methyl-2,3-dioxo-N-(quinolin-7-yl)-1,2,3,4-tetrahydroquinoxaline-6-sulfonamide] is lower in EC50: 1000 to 3500 nM for the first, 100 to 1000 nM for the second.

Compared with `O=c1[nH]c2cc3c(cc2[nH]c1=O)S(=O)(=O)N(c1ccc(OC(F)(F)F)cc1)CCO3` [Compound 237], `CN(C)c1cc2[nH]c(=O)c(=O)[nH]c2cc1S(=O)(=O)Nc1ccc(OC(F)(F)F)cc1` [Compound 221, 7-(dimethylamino)-2,3-dioxo-N-(4-(trifluoromethoxy)phenyl)-1,2,3,4-tetrahydroquinoxaline-6-sulfonamide] is lower in EC50: 100 to 1000 nM for the first, 30 to 100 nM for the second.

`Cc1cc2[nH]c(=O)c(=O)[nH]c2cc1S(=O)(=O)Nc1ccc(-c2ccc(F)cc2)c(S(C)(=O)=O)c1` [Compound 397, N-[4-(4-fluorophenyl)-3-methylsulfonyl-phenyl]-7-methyl-2,3-dioxo-1,4-dihydroquinoxaline-6-sulfonamide] and `COc1ccc(-c2ccc(NS(=O)(=O)c3cc4[nH]c(=O)c(=O)[nH]c4cc3C)cc2Cl)cc1C(N)=O` [Compound 395, 5-[2-chloro-4-[(7-methyl-2,3-dioxo-1,4-dihydroquinoxalin-6-yl)sulfonylamino]phenyl]-2-methoxy-benzamide] fall in the same range of EC50: 1000 to 3500 nM for the first, 1000 to 3500 nM for the second.

First: Cc1cc2[nH]c(=O)c(=O)[nH]c2cc1S(=O)(=O)Nc1ccc(N2CCCC2)c(Cl)c1 [Compound 196, N-(3-chloro-4-(pyrrolidin-1-yl)phenyl)-7-methyl-2,3-dioxo-1,2,3,4-tetrahydroquinoxaline-6-sulfonamide]
Second: Cc1nc2ccc(NS(=O)(=O)c3cc4[nH]c(=O)c(=O)[nH]c4cc3C)cc2s1 [Compound 239, 7-methyl-N-(2-methylbenzo[d]thiazol-6-yl)-2,3-dioxo-1,2,3,4-tetrahydroquinoxaline-6-sulfonamide]
The EC50 of the first is lower: 30 to 100 nM for the first, 1000 to 3500 nM for the second. The first is the more potent here.

`Cc1cc2[nH]c(=O)c(=O)[nH]c2cc1S(=O)(=O)Nc1cnc(-c2cccc(Cl)c2)c(Cl)c1` [Compound 213, N-(5-chloro-6-(3-chlorophenyl)pyridin-3-yl)-7-methyl-2,3-dioxo-1,2,3,4-tetrahydroquinoxaline-6-sulfonamide] and `Cc1cc2[nH]c(=O)c(=O)[nH]c2cc1S(=O)(=O)Nc1cnc(-c2ccc(F)c(Cl)c2)c(Cl)c1` [Compound 214, N-(5-chloro-6-(3-chloro-4-fluorophenyl)pyridin-3-yl)-7-methyl-2,3-dioxo-1,2,3,4-tetrahydroquinoxaline-6-sulfonamide] fall in the same range of EC50: 100 to 1000 nM for the first, 100 to 1000 nM for the second.

`COc1cc2[nH]c(=O)c(=O)[nH]c2cc1S(=O)(=O)Nc1ccc(OC(F)(F)F)cc1` [Compound 193, 7-methoxy-2,3-dioxo-N-(4-(trifluoromethoxy)phenyl)-1,2,3,4-tetrahydroquinoxaline-6-sulfonamide] and `O=c1[nH]c2cc(OC(F)(F)F)c(S(=O)(=O)Nc3ccc(OC(F)(F)F)cc3)cc2[nH]c1=O` [Compound 192, 2,3-dioxo-7-(trifluoromethoxy)-N-(4-(trifluoromethoxy)phenyl)-1,2,3,4-tetrahydroquinoxaline-6-sulfonamide] fall in the same range of EC50: 100 to 1000 nM for the first, 100 to 1000 nM for the second.

Compared with `Cc1cc2[nH]c(=O)c(=O)[nH]c2cc1S(=O)(=O)Nc1cnc(Br)c(Cl)c1` [Compound 236, N-(6-bromo-5-chloropyridin-3-yl)-7-methyl-2,3-dioxo-1,2,3,4-tetrahydroquinoxaline-6-sulfonamide], `Cc1cc2[nH]c(=O)c(=O)[nH]c2cc1S(=O)(=O)Nc1ccc2c(c1)OCCO2` [Compound 242, N-(2,3-dihydrobenzo[b][1,4]dioxin-6-yl)-7-methyl-2,3-dioxo-1,2,3,4-tetrahydroquinoxaline-6-sulfonamide] is lower in EC50: 1000 to 3500 nM for the first, 100 to 1000 nM for the second. The second is the more potent here.

`Cc1cc2[nH]c(=O)c(=O)[nH]c2cc1S(=O)(=O)Nc1ccc2c(c1)OC(F)(F)O2` [Compound 241, N-(2,2-difluorobenzo[d][1,3]dioxol-5-yl)-7-methyl-2,3-dioxo-1,2,3,4-tetrahydroquinoxaline-6-sulfonamide] and `Cc1cc2[nH]c(=O)c(=O)[nH]c2cc1S(=O)(=O)Nc1ccc(OC(F)(F)F)cn1` [Compound 222, 7-methyl-2,3-dioxo-N-(5-(trifluoromethoxy)pyridin-2-yl)-1,2,3,4-tetrahydroquinoxaline-6-sulfonamide] fall in the same range of EC50: 100 to 1000 nM for the first, 100 to 1000 nM for the second.

`Cc1cc2[nH]c(=O)c(=O)[nH]c2cc1S(=O)(=O)Nc1nc(C)c(-c2ccccc2)s1` [Compound 240, 7-methyl-N-(4-methyl-5-phenylthiazol-2-yl)-2,3-dioxo-1,2,3,4-tetrahydroquinoxaline-6-sulfonamide] and `Cc1cc2[nH]c(=O)c(=O)[nH]c2cc1S(=O)(=O)Nc1cnn(-c2ccccc2)c1` [Compound 207, 7-methyl-2,3-dioxo-N-(1-phenyl-1H-pyrazol-4-yl)-1,2,3,4-tetrahydroquinoxaline-6-sulfonamide] fall in the same range of EC50: 1000 to 3500 nM for the first, 1000 to 3500 nM for the second.
